Measurements from US12133857B2, “Method for prolonging half-life of theanine in vivo” (Anhui Agricultural University, priority 2023, dated 2024).

Legend:
in vivo [1] = settings: rat, po, 500 mg/kg
Procedure: 1-deoxy-1-L-theanine-D-fructopyranose was recorded as a theanine glycoside 1, 1-deoxy-1-L-theanine-D-galactopyranose was recorded as a theanine glycoside 2, and 1-deoxy-1-L-theanine-D-ribopyranose was recorded as a theanine glycoside 3. • 1. Experimental animals: Male SD rats with the body weight of (180±20) g were used. • 2. Administration and sample collection: The rats were intragastrically administered (n=6), which were randomly divided into two groups, including a theanine group and a theanine glycoside group. The rats were subjected to fasting without limitation of water for 12 h before administration and then allowed to drink water after intragastric administration. The intragastric administration dose was 500 mg/kg. 1 h, 2 h, 4 h, 8 h and 12 h before and after the administration, 0.5 mL of blood was collected from eye sockets of 6 rats in each group, respectively. Blood samples were centrifuged at 3,000 g for 15 min, supernatants were separated to obtain plasma samples, and the plasma samples were stored at −80° C. • 3. Instrument conditions and determination of plasma samples:
(§1) Instrument: SCIEX Triple Quad™ 5500 LC-MS/MS was used.
Drawing of a standard curve: 100 μL of blank plasma of the rats was taken, added into 1.5 mL of a 70% methanol aqueous solution and mixed in vortex for 30 s, and a resulting mixture was subjected to ultrasonic treatment in an ice water bath for 10 min, followed by standing at −20° C. for 20 min to precipitate a protein. The protein was centrifuged briefly for 15 s for 2 times, and a supernatant was taken out, dried by a vacuum concentrator at 4° C. and redissolved with 200 μl of methanol. 200 μL of a series of standard solutions of a tested compound and 10 μL of an internal standard (DL-4-chlorophenylmethylamino) were sequentially added to prepare plasma samples of the tested compound with a plasma concentration of 0.1 μM, 1 μM, 10 μM, 100 μM, 1,000 μM and 10,000 μM respectively, followed by LC-MS/MS analysis. With the concentration of the tested compound (x) as the abscissa and the ratio of peak areas of the tested compound and the internal standard (y) as the ordinate, regression calculation was performed by a weighted least square method to obtain a linear regression equation, namely a standard curve. According to the standard curve, the linear range of the tested compound in the plasma of the rats was 0.1 μM-10,000 μM as determined by an LC-MS/MS method. […]
The half-life T1/2 was calculated according to formulas below: […]

in vivo [2] = settings: mouse, po, 500 mg/kg
Procedure: 1-deoxy-1-L-theanine-D-fructopyranose was recorded as a theanine glycoside 1, 1-deoxy-1-L-theanine-D-galactopyranose was recorded as a theanine glycoside 2, and 1-deoxy-1-L-theanine-D-ribopyranose was recorded as a theanine glycoside 3. • 1. Experimental animals: Male C57BL/6J mice with the body weight of (20±2) g were used. • 2. Administration and sample collection: The mice were intragastrically administered (n=6), which were randomly divided into two groups, including a theanine group and a theanine glycoside group. The mice were subjected to fasting without limitation of water for 12 h before administration and then allowed to drink water after intragastric administration. The intragastric administration dose was 500 mg/kg. 1 h, 2 h, 4 h, 8 h and 12 h before and after the administration, 6 mice in each group were killed by cervical dislocation and then dissected to obtain brain tissues respectively, and the brain tissues were stored at −80° C. for subsequent detection. • 3. Instrument conditions and determination of brain tissue samples:
as §1
Drawing of a standard curve: 20 mg of blank brain tissues of the mice were taken, added into 1.5 mL of a 70% methanol aqueous solution and mixed in vortex for 30 s, and a resulting mixture was subjected to ultrasonic treatment in an ice water bath for 10 min, followed by standing at −20° C. for 20 min to precipitate a protein. The protein was centrifuged briefly for 15 s for 2 times, and a supernatant was taken out, dried by a vacuum concentrator at 4° C. and redissolved with 200 μL of methanol. 200 μl of a series of standard solutions of a tested compound and 10 μl of an internal standard (DL-4-chlorophenylmethylamino) were sequentially added to prepare brain tissue samples of the tested compound with a brain tissue concentration of 0.1 μM, 1 μM, 10 μM, 100 μM, 1,000 μM and 10,000 μM respectively, followed by LC-MS/MS analysis. With the concentration of the tested compound (x) as the abscissa and the ratio of peak areas of the tested compound and the internal standard (y) as the ordinate, regression calculation was performed by a weighted least square method to obtain a linear regression equation, namely a standard curve. According to the standard curve, the linear range of the tested compound in the plasma of the mice was 0.1 μM-10,000 μM as determined by an LC/MS/MS method. […]

T1/2 in the blood (in vivo [1]) | T1/2 in the brain (in vivo [2]) | half-life (in vivo [1]; male, SD) | half-life (in vivo [2]; male, C57BL/6J) | Compound
25.70 ± 1.31 h | 19.56 ± 1.54 h | – | – | CCNC(=O)CC[C@H](NCC1(O)OC[C@@H](O)[C@@H](O)[C@@H]1O)C(=O)O (stereo partly drawn) [Theanine glycoside 1, 1-deoxy-1-L-theanine-D-fructopyranose]
19.94 ± 1.06 h | 13.55 ± 1.55 h | – | – | CCNC(=O)CC[C@H](NC1O[C@H](CO)[C@H](O)[C@H](O)[C@H]1O)C(=O)O (stereo partly drawn) [Theanine glycoside 2, 1-deoxy-1-L-theanine-D-galactopyranose]
16.80 ± 1.93 h | 10.85 ± 0.54 h | – | – | CCNC(=O)CC[C@H](NC1OC[C@@H](O)[C@@H](O)[C@H]1O)C(=O)O (stereo partly drawn) [Theanine glycoside 3, 1-deoxy-1-L-theanine-D-ribopyranose]
– | – | 2.05 ± 0.12 h | 2.07 ± 0.19 h | CCNC(=O)CC[C@H](N)C(=O)O [Theanine, L-theanine]
